Assay results taken from patent publication US12577232B2, “N-heterocycle substituted tryptamine derivatives and methods of using” (ENVERIC B[…] INC., priority 2024, dated 2026).

Tests used:
5-HT2A receptor [1] = target: T1, 5-HT2A receptor (Homo sapiens, UniProt P28223); assay: Functional cell-based 5-HT2A assay, agonism mode (CHO-K1/5-HT2A, Fluo-8 calcium flux); details: CHO-K1/5-HT2A cells
T1 construct: purchased PerkinElmer ES-313-M400UA
Method: Herein, functional, cell-based assays were conducted to determine (1) agonist potency and efficacy of drugs at the 5-HT2A receptor (agonist mode), and (2) antagonist potency at the 5-HT2A receptor (antagonist mode).
All cells were grown and maintained as a monolayer in Ham's F12 nutrient mix supplemented with 10% fetal bovine serum (FBS) and 400 μg/mL geneticin (G418) all from ThermoFisher Scientific and used according to the manufacturer's instructions. Cells were cultured and incubated at 37° C. in a humidified oxygen atmosphere with 5% CO2. To evaluate the activation of 5-HT2A signal transduction, cells were first seeded in tissue culture-treated, black-walled, clear-bottom 96-well plates (Thermo Scientific) at a density of 40,000 cells/well in 100 pl Ham's F12 nutrient mix supplemented with 2% FBS. Cells were cultured for 24 h in a humidified incubator at 37° C. and 5% CO2. Cells were then loaded with Fluo-8 calcium indicator dye for 1 h at 37° C. and an additional 30 min at room temperature as per the manufacturer's protocol. […] Kinetic increases in intracellular calcium levels were measured immediately after addition of test compounds every 6.4 s for a total of 3 min using the FlexStation 3 multimode microplate reader and SoftMax Pro 7.1 analysis software (Molecular Devices, moleculardevices.com). […] EC50 values were calculated from the normalized data from GraphPad PRISM software.

5-HT2A receptor [2] = target: T1, 5-HT2A receptor; assay: Functional cell-based 5-HT2A assay, antagonism mode (CHO-K1/5-HT2A, 100 nM serotonin, calcium flux); details: CHO-K1/5-HT2A cells, with 100 nM serotonin
Description: A variety of 5-HT2A receptor engagement modes have been correlated with positive outcomes in the treatment of neurological disorders. While agonism is associated with a host of favourable effects, antagonizing the 5-HT2A receptor is also an attractive pharmacological approach. For example, antagonism is known to alleviate both dyskinesisa and psychosis in Parkinson's Disorder and holds promise for other psychiatric diseases (Mestre et al., 2013, Expert Opin. Investig. Drugs 22:411-421). Similarly positive outcomes are noted for inverse agonists (Cummings et al., 2014, Lancet, 383:533-540; Roberts, 2006, Curr. Opin. Invest. Drugs 7:653-660). […]
Stimulation of 5-HT2A coupled to the Gq family proteins leads to activation of the phospholipase C (PLC) pathway, ultimately resulting in the accumulation of cytosolic calcium (Cussac et al., Europ. J. Pharmacol., 2008, 594 (1-3), 32-38). […] Kinetic increases in intracellular calcium levels were measured immediately after addition of ligands every 6.4 s for a total of 3 min using the FlexStation 3 multimode microplate reader and SoftMax Pro 7.1 analysis software (Molecular Devices, moleculardevices.com). […] IC50 values were calculated from the normalized data from GraphPad PRISM software. […]

[3] = system: stressed C57BL/6-Elite mice; assay: Mouse marble burying (MB) assay to assess anxiolytic potential; assay type: in vivo; details: i.p., psilocin 3 mg/kg, compound (XV) 10 mg/kg; vs Vehicle+Stress
Method: Marble burying behavior is used to measure the level of anxiety in a rodent when it encounters unfamiliar objects (Deacon, 2006, Nature Protocols 1:122-124). This assay is routinely applied to the study of chronically stressed mice, where drug candidates are evaluated for an ability to diminish stress-induced, anxiety-like behaviours (e.g., Wang et al., ACS Chem. Neurosci. 14:977-987). Positive results in this assay may be interpreted as an indication of therapeutic (anxiolytic) potential in the treatment of various psychiatric disorders. Herein, we applied the marble burying model to investigate whether selected drugs could alleviate anxiety behaviour in stressed mice.
All animal protocols were approved by the University of Calgary Animal Care and Use Committee. C57BL/6-Elite mixed sex mice were obtained from Charles River Laboratories (Toronto, Canada) at 8-9 weeks old. […]
On the testing days, 10 glass marbles (approx. 15 mm in diameter) were evenly spaced on 5 cm of wood-chip bedding (lightly tamped down to make a flat and even surface). […] The number of marbles buried to ⅔rds their depth was measured. Fully buried marbles were counted as 1 and partially (at least ⅔rds) buried marbles were counted as 0.5. […]

[4] = system: stressed C57BL/6-Elite mice; assay: Mouse sucrose preference (SP) assay to assess antidepressant potential; assay type: in vivo; details: i.p., psilocin 3 mg/kg, compound (XV) 10 mg/kg; one day after administration
Method: Reduced intake of pleasurable substances, e.g., of sucrose water, is a validated behavioral measure of anhedonic/depressive-like state in rodents (Moreau et al., 1992, Eur. Neurpsychopharmocol. 2:43-49; Liu et al., 2018, Nature Protocols 13:1686-1698). […] In the SP assay, cohorts of mice are pre-stressed, leading to a depressed state. The ability of drugs to rescue this state are evaluated.
All animal protocols were approved by the University of Calgary Animal Care and Use Committee. C57BL/6-Elite mixed sex mice were obtained from Charles River Laboratories (Toronto, Canada) at 8-9 weeks old. Mice were maintained on a 12:12 h light/dark schedule (lights on at 07:00 hours) with ad libitum access to food and water and group-housed until 2 days prior to the start of the mild chronic stress paradigm, then mice were single-housed. […]
Mice were introduced to 1% sucrose solution in their drinking water for 24 hrs for 2 days prior to initial sucrose preference testing to reduce impact of novelty. […] The consumption in water, sucrose solution, and total intake of liquids was measured by weighing each bottle before and after the 24-hr experiment. The preference for sucrose was calculated as a percentage of the consumed sucrose solution from the total intake of both water and sucrose solutions. […]

[5] = after intravenous (and oral) psilocybin administration (Raithatha et al., 2023); cited from earlier work

T1 sequence (P28223 whole entry): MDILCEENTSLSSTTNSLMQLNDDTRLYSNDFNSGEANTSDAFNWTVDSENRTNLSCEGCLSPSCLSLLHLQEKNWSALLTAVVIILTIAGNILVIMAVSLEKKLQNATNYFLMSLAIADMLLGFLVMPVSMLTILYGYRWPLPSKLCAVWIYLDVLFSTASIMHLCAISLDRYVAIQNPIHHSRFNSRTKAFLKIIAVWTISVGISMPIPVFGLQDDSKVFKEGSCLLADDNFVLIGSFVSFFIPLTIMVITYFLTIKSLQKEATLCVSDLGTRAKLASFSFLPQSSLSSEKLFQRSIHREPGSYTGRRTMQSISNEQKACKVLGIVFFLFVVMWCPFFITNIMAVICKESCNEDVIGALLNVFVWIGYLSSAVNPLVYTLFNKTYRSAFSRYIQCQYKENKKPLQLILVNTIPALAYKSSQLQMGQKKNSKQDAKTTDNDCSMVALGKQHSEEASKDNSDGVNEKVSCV

SMILES: CN(C)CCc1c[nH]c2cccc(O)c12 [psilocin, reference compound]
- engagement at the 5-HT2A receptor, agonist mode (5-HT2A receptor [1]): agonism
- engagement at the 5-HT2A receptor, antagonist mode (5-HT2A receptor [2]): antagonism
- anxiety-linked (marble burying) behavior in stressed mice [3]: rescued
- sucrose preference behaviour in stressed mice vs no drug control [4]: significantly elevated
- persistence in plasma [5]: > 8 h
